Experimental findings from US20220242843A1, “PROCESS FOR PREPARING A COUMARIN-CAGED FORSKOLIN DERIVATIVE, FORSKOLIN DERIVATIVE AND USE OF SAID FORSKOLIN DERIVATIVE” (Forschungszentrum Juelich GmbH, priority 2019, published 2022) are described below.

Data set [1] is described as follows: Photolysis of JCF 1 in MeOH under 368.8 nm irradiation, followed by mass spectrometry. The following applies: 100 μM in MeOH; 368.8 nm±5 nm; approximately 12.5 mW/cm^2. It is filed as physicochemical. The method, then: The photolysis of JCF 1 is carried out under controlled conditions in order to quantitatively detect the release of forskolin carbamate 10 as a function of the amount of light absorbed: 0.16 ml of a 100 μM solution of JCF 1 in MeOH is added to a quartz glass cuvette (width: 4 mm; depth (optical path): 10 mm->fill level 4 mm). The “Intensilight” light source (excitation lamp of a Nikon TI Eclipse fluorescence microscope) is used as the excitation source, the light of which is guided through a gel light guide (active diameter: 4 mm) and a narrowband bandpass filter (368.8 nm±5 nm) onto the liquid column in the cuvette. […]
The irradiated samples are then examined using mass spectrometry (mass spectrometer: MSQ Plus from ThermoScientific; ionization: ESI-interface with a cone voltage of 50 V, eluent: methanol, water, glacial acetic acid, /50, 50, 0.02/vol, vol, vol; flow rate 0.2 ml/min; direct injections of 20 μl of the respective irradiated samples via a Rheodyne injection valve (7725i)). The mass trace m/z 511 and the mass range m/z 807-811 are recorded. The integrals of the peaks of the chromatogram of the mass trace m/z 511 (see FIG. 10) are evaluated. With an exposure time of 320 seconds, no more signals can be detected in the mass range m/z 807-811 (starting compound), and therefore a complete conversion can be assumed after this time under the above-described conditions.

Data set [2] has as its system peripheral membrane adenylyl cyclases. Kind of data set: Validation on eukaryotic cell line expressing CNG channel and GCaMP3.0: Ca2+-dependent fluorescence as readout of intracellular cAMP increase after UV exposure. It is filed as cell-based. The following applies: 100 μM IBMX. The text has this:
The substance JCF 1 described according to embodiments of the invention was validated on eukaryotic cell cultures in which the increase in the intracellular cAMP concentration, which results from the binding of the biologically active forskolin carbamate 10 (FIG. 9) to peripheral membrane adenylyl cyclases which are endogenously present in the cells, using a fluorescence-based sensitive detection process.^14 In this regard, a cell line was used in which a cyclic-nucleotide-gated (CNG) ion channel is constitutively expressed. These channels are typically expressed in olfactory sensory neurons of the olfactory epithelium and open when the intracellular cAMP concentration increases. […] The inflow of Ca^2+ can be detected with Ca^2+-sensitive dyes or genetically encoded Ca^2+ indicators, such as GCaMP sensors, in a fluorescence reader or with a fluorescence microscope. […] The Ca^2+-dependent change in the fluorescence change can be detected and quantified with the aforementioned processes.
Cells of the cell line described were seeded in 96-well multi-well plates (MWP) and increased to a density of approximately 25,000. […] The basal fluorescence in the wells of 96-well MWP was then measured with a fluorescence reader. […] The basal fluorescence in the wells was then measured again before the entire 96-well MWP plate was exposed to light using a UV lamp device (FIG. 11, FIG. 12). […]

Consider `C=C[C@@]1(C)CC(=O)[C@]2(O)[C@@]3(C)[C@@H](O)CCC(C)(C)[C@@H]3[C@H](OC(=O)NCCN(C)C(=O)OCc3cc(=O)oc4cc(O)c(Br)cc34)[C@H](OC(C)=O)[C@@]2(C)O1` [JCF 1, (3R,4aR,5S,6S,6aS,10S,10aR,10bS)-6-(((2-((((6-bromo-7-hydroxy-2-oxo-2H-chromen-4-yl)methoxy)carbonyl)(methyl)amino)ethyl)carbamoyl)oxy)-10,10b-dihydroxy-3,4a,7,7,10a-pentamethyl-1-oxo-3-vinyldodecahydro-1H-benzo[f]chromen-5-yl acetate], for which the “exposure time after which no more signals of starting compound (m/z 807-811) can be detected; complete conversion assumed” value in data set [1] is 320 s. Further, the “change in fluorescence relative to the values achieved by adding non-caged NKH 477” value in data set [2] (10 μM and 30 μM, after UV exposure) is “approximately 50%”. In data set [2] (cells loaded with 10 μM and 30 μM for 30 min in the dark, UV lamp exposure), the “Ca2+-dependent fluorescence emission after UV exposure (release of forskolin carbamate 10)” value was “significant increase”.
